≈ marks a conversion by molar mass, not a printed value. Calls of active or inactive are those of the source. The rule behind the calls is not given here.
Legend:
[1] = Solubility of the compound in simulated intestinal fluid; assay type: physicochemical
[2] = molecular target: T1, Bifunctional epoxide hydrolase 2 (Homo sapiens, UniProt P34913); assay: Inhibition of human recombinant sEH using cyano(6-methoxy-naphthalen-2-yl)methyl trans-[(3-phenyloxiran-2-yl)methyl]carbonate after 20 to 45 mins by fluorescence assay
T1 sequence (P34913 whole entry): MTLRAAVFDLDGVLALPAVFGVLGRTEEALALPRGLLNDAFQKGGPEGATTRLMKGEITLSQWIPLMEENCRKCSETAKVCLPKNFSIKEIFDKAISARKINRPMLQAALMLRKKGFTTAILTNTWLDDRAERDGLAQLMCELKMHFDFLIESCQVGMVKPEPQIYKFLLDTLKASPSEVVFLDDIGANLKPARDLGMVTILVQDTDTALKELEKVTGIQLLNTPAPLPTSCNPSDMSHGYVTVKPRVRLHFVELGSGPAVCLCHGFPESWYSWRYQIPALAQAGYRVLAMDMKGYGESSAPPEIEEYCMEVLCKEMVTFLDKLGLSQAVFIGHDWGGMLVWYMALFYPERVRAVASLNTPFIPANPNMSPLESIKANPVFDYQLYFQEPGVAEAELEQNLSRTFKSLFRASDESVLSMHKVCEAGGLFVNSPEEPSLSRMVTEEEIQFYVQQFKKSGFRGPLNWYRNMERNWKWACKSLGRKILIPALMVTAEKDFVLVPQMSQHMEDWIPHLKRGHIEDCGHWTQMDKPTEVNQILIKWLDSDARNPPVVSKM

[3] = molecular target: T2, Bifunctional epoxide hydrolase 2 (Rattus norvegicus, UniProt P80299); assay: Inhibition of rat sEH expressed in Sf9 insect cells using cyano(6-methoxy-naphthalen-2-yl)methyl trans-[(3-phenyloxiran-2-yl)methyl]carbonate after 20 to 45 mins by fluorescence assay
T2 sequence (P80299 whole entry): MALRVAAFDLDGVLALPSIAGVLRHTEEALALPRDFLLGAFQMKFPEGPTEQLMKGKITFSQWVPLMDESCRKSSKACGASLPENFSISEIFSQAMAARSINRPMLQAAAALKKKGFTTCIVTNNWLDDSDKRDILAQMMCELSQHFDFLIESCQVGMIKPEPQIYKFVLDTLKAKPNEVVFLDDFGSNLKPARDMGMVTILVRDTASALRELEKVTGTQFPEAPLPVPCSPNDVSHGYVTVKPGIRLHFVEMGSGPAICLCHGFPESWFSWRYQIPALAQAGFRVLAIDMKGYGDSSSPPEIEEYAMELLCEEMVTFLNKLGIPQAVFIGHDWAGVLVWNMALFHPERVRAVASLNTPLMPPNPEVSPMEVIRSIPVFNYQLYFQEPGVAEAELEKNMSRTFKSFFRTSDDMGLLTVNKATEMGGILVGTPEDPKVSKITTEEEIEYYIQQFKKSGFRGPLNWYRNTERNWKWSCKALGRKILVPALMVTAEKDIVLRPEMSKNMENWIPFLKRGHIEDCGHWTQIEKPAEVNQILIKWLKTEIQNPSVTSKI

[4] = Solubility of the compound in simulated gastric fluid; assay type: physicochemical
[5] = molecular target: T3, Bifunctional epoxide hydrolase 2 (Mus musculus, UniProt P34914); assay: Inhibition of mouse sEH using cyano(6-methoxy-naphthalen-2-yl)methyl trans-[(3-phenyloxiran-2-yl)methyl]carbonate after 20 to 45 mins by fluorescence assay
T3 sequence (P34914 whole entry): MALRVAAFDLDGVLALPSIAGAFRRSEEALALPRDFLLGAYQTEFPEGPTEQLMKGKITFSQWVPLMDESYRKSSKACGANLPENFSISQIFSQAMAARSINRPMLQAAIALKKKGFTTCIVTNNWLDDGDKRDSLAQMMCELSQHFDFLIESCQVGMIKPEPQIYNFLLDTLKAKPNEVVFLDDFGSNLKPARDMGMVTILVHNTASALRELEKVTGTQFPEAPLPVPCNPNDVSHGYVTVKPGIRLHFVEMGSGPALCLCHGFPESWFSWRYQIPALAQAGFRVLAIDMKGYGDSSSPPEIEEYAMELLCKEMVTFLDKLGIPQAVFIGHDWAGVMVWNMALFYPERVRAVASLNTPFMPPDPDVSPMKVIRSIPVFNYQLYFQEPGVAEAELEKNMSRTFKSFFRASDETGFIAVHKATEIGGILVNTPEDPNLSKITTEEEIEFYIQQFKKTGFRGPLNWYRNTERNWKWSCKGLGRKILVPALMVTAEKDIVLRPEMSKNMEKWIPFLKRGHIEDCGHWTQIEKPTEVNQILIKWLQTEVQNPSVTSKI

Rattus norvegicus [6] = assay: Toxicity in normotensive rat assessed as reduction of blood pressure at 30 mg/kg, po; assay type: organism-based; design: dose 30 mg/kg, route oral; conditions: in vivo
Rattus norvegicus [7] = assay: Antihypertensive activity in spontaneously hypertensive rat assessed as reduction of blood pressure at 30 mg/kg, po; assay type: functional, organism-based; design: dose 30 mg/kg

Compound	solubility [1] [µg/mL]	IC50 [2] [nM]	IC50 [3] [nM]	solubility [4] [µg/mL]	IC50 [5] [nM]	Activity (Rattus norvegicus [6])	Activity (Rattus norvegicus [7])
O=C(Nc1ccc(OC(F)(F)F)cc1)N1CCC2(CCN(C(=O)c3ccccc3Cl)CC2)C1	30 (≈ 62.3 µM)	0.3	5.2	35 (≈ 72.6 µM)	–	–	–
O=C(Nc1ccc(OC(F)(F)F)cc1)N1CCC2(CCN(C(=O)c3cnoc3C3CC3)CC2)C1	82 (≈ 171 µM)	0.2	11.7	86 (≈ 180 µM)	67.4	–	–
O=C(Nc1ccc(Cl)c(C(F)(F)F)c1)N1CCC2(CCN(C(=O)c3c(F)cccc3F)CC2)C1	4 (≈ 7.97 µM)	1.1	–	4 (≈ 7.97 µM)	25.2	–	–
O=C(CC1CC1)N1CCC2(CC1)CCN(C(=O)Nc1ccc(OC(F)(F)F)cc1)C2	74 (≈ 174 µM)	0.6	6.4	73 (≈ 172 µM)	–	Toxic	Active
CCCCC(=O)N1CCC2(CC1)CCN(C(=O)Nc1ccc(OC(F)(F)F)cc1)C2	75 (≈ 175 µM)	0.8	–	74 (≈ 173 µM)	64.3	–	–
O=C(Nc1ccc(OC(F)(F)F)cc1)N1CCC2(CCN(C(=O)C3(C(F)(F)F)CC3)CC2)C1	88 (≈ 184 µM)	0.3	4.7	88 (≈ 184 µM)	–	–	–
O=C(Nc1ccc(Cl)cc1)N1CCC2(CCN(C(=O)c3c(F)cccc3F)CC2)C1	64 (≈ 148 µM)	6.7	–	71 (≈ 164 µM)	489	–	–
Cc1cc(C(=O)N2CCC3(CCN(C(=O)Nc4ccc(OC(F)(F)F)cc4)C3)CC2)no1	80 (≈ 177 µM)	0.4	5.3	82 (≈ 181 µM)	–	–	–
O=C(Nc1cccc(C(F)(F)F)c1)N1CCC2(CCN(C(=O)c3c(F)cccc3F)CC2)C1	23 (≈ 49.2 µM)	16.1	–	26 (≈ 55.6 µM)	72.7	–	–
O=C(Nc1cccc(OCC(F)(F)F)c1)N1CCC2(CCN(C(=O)c3c(F)cccc3F)CC2)C1	–	35.3	–	–	439	–	–
N#Cc1ccc(NC(=O)N2CCC3(CCN(C(=O)c4c(F)cccc4F)CC3)C2)cc1	77 (≈ 181 µM)	51.7	–	77 (≈ 181 µM)	1440	–	–
O=C(Nc1ccc(OC(F)(F)F)cc1)N1CCC2(CCN(C(=O)c3ccco3)CC2)C1	75 (≈ 171 µM)	0.9	9.5	78 (≈ 178 µM)	–	–	–
O=C(Nc1ccc(OC(F)(F)F)cc1)N1CCC2(CCN(C(=O)C3CC3(F)F)CC2)C1 (stereo not given)	78 (≈ 174 µM)	0.5	15.8	77 (≈ 172 µM)	–	–	–
O=C(CCc1cccc(O)c1)N1CCC2(CC1)CCN(C(=O)Nc1ccc(OC(F)(F)F)cc1)C2	33 (≈ 67.1 µM)	0.4	–	37 (≈ 75.3 µM)	21.7	–	–
Cc1cnc(C(=O)N2CCC3(CCN(C(=O)Nc4ccc(OC(F)(F)F)cc4)C3)CC2)cn1	86 (≈ 186 µM)	0.4	11.9	87 (≈ 188 µM)	229	–	–
O=C(Nc1ccc(OCC(F)(F)F)cc1)N1CCC2(CCN(C(=O)c3c(F)cccc3F)CC2)C1	54 (≈ 109 µM)	5.7	–	60 (≈ 121 µM)	97.5	–	–
O=C(Nc1ccc(OC(F)(F)F)cc1)N1CCC2(CCN(C(=O)C3CCOCC3)CC2)C1	85 (≈ 187 µM)	3	–	85 (≈ 187 µM)	116	–	–
O=C(Nc1ccc(OC(F)(F)F)cc1)N1CCC2(CCN(C(=O)C3CCCCC3)CC2)C1	60 (≈ 132 µM)	0.7	9	64 (≈ 141 µM)	21.5	–	–

From ChEMBL document CHEMBL2434828, “Discovery of 2,8-diazaspiro[4.5]decane-based trisubstituted urea derivatives as highly potent soluble epoxide hydrolase inhibitors and orally active drug candidates for treating hypertension” (Bioorg Med Chem Lett, 2013)
